{"source": "paper PMC5531531", "about": "“A synthetic cationic antimicrobial peptide inhibits inflammatory response and the NLRP3 inflammasome by neutralizing LPS and ATP” (PLoS ONE, 2017)", "key": {"THP-1 macrophages": {"system": "THP-1 macrophages", "format": "cell-based, human", "method": "RAW 264.7 cells or THP-1 macrophages (5 × 10^3 in 0.1 ml of medium) were seeded in 96-well plates and then incubated with various doses of AMP for 24 h. An AlamarBlue® assay (AbD Serotec, Oxford, UK) was used to determine the cytotoxicity of the test AMP. The procedure was conducted following the protocol described in the manufacturer’s instructions."}, "[1]": {"system": "NF-κB activity in RAW-Blue cells", "assay": "NF-κB reporter assay", "format": "cell-based", "details": "E. coli LPS 0.1 μg/ml 24 h, QUANTI-Blue, Fig 2D", "method": "RAW-Blue™ cells (2 × 10^5 in 0.5 ml of medium) were seeded in 24-well plates and then incubated with LPS (0.1 μg/ml) in the presence or absence of AMPs for 24 h. The NF-κB activity was assayed by QUANTI-Blue™ (rep-qb1, InvivoGen) as described in detail previously."}, "[2]": {"system": "E. coli-LPS-activated RAW 264.7 macrophages", "assay": "MAPK, PKC-α/δ and IκB-α phosphorylation (Western blot)", "format": "cell-based, mouse", "details": "2 μM GW-A2 30 min, then E. coli LPS 0.1 μg/ml 0–60 min", "method": "(§1) The protein expression levels of iNOS, COX-2, ERK1/2, JNK1/2, p38, IκB-α, PKC, caspase-1 and the phosphorylation levels of ERK1/2, JNK1/2, p38, PKC-α, PKC-δ, IκB-α were determined by Western blotting as described in detail previously.\nFig 2 Effects of GW-A2 on LPS-mediated signaling pathways. (A-C) RAW 264.7 macrophages were incubated for 30 min with or without 2 μM of GW-A2, followed by 0–60 min with or without 0.1 μg/ml of E. coli LPS. The phosphorylation levels of (A) ERK1/2, JNK1/2 and p38, (B) PKC-α and PKC-δ, and (C) I-κB-α were assayed by western blotting. (D) RAW-Blue^TM cells were incubated for 30 min with or without GW-A2, followed by 24 h with or without 0.1 μg/ml of E. coli LPS. The activation levels of NF-κB were measured by an NF-κB reporter assay. The data are expressed as the mean ± SD of three independent experiments. The western blotting results shown are a representative experiment of three independent experiments. * and ** indicate significant differences, representing p < 0.05 and p < 0.01, respectively compared to LPS alone."}, "[3]": {"system": "cell surface of paraformaldehyde-fixed RAW 264.7 cells", "assay": "Flow cytometry, binding to the cell surface", "format": "cell-based, mouse", "details": "fixed RAW 264.7, GW-A2 30 min then 2 μg/ml LPS-FITC 30 min, 4°C; Fig 6A", "method": "For binding of GW-A2 to the cell surface, RAW 264.7 cells were fixed for 15 min with 2% paraformaldehyde and then incubated for 30 min with 20 μM of GW-A2-FITC at 4°C. After washing, cells were subjected to flow cytometric analysis on a FACSCalibur using CellQuest Software (Becton Dickinson Inc., San Jose, CA, USA). To assess binding of LPS to the cell surface, RAW 264.7 cells were fixed for 15 min with 2% paraformaldehyde and then incubated for 30 min with GW-A2. This was followed by incubation for 30 min with 2 μg/ml of LPS-FITC (F3665, Sigma) at 4°C. After washing, the cells were subjected to flow cytometric analysis."}, "[4]": {"system": "NLRP3 inflammasome in J774A.1 macrophages", "assay": "NLRP3 inflammasome activation (IL-1β ELISA, caspase-1 Western blot)", "format": "cell-based", "method": "The expression levels of IL-1β, IL-6 and TNF-α in the conditional medium, sera and lavage fluids were measured by ELISA as described in detail previously.\nas §1\nFig 4 Effects of GW-A2 on NLRP3 inflammasome activation. (A and B) J774A.1 macrophages were incubated for 30 min with or without 2 μM of GW-A2, for 5.5 h with or without 0.1 μg/ml of E. coli LPS, and then for 30 min with or without 5 mM of ATP (A) or 10 μM of nigericin (B). The levels of IL-1β in the culture medium and activated caspase-1 (p10) in the cells were measured by ELISA and Western blotting, respectively. (C—F) J774A.1 macrophages were incubated for 5.5 h with 0.1 μg/ml of E. coli LPS, for 30 min with or without 2 μM of GW-A2, and then for 30 min with or without 5 mM of ATP (C and E), 10 μM of nigericin (D) or 100 μg/ml of MSU (F). The levels of IL-1β and TNF-α in the culture medium and activated caspase-1 (p10) in the cells were measured by ELISA and Western blotting, respectively. The data are expressed as the mean ± SD of three independent experiments. The Western blotting results shown are a representative experiment of three independent experiments. *, ** and *** indicate significant differences, representing p < 0.05, p < 0.01 and p < 0.001, respectively compared to stimulation alone."}}, "note": "No end group written: not given here.", "data": [{"sequence": "GAKYAKIIYNYLKKIANALW [GW-A2]", "values": [{"measurement": "Viability of THP-1 macrophages", "setting": "THP-1 macrophages", "result": "did not reduce"}, {"measurement": "NF-κB transcriptional activity", "setting": "[1]", "result": "reduced by GW-A2 in a dose-dependent manner"}, {"measurement": "Phosphorylation levels of ERK1/2, JNK1/2 and p38", "setting": "[2]; Fig 2A", "result": "reduced"}, {"measurement": "Phosphorylation levels of PKC-α and PKC-δ", "setting": "[2]; Fig 2B", "result": "reduced"}, {"measurement": "Phosphorylation levels of IκB-α", "setting": "[2]; Fig 2C", "result": "inhibited"}, {"measurement": "Competition with LPS-FITC for cell surface binding", "setting": "[3]", "result": "did not compete"}, {"measurement": "LPS-FITC binding to the cell surface in presence of GW-A2", "setting": "[3]", "result": "increase in LPS-FITC binding to the cell surface"}, {"measurement": "IL-1β secretion and caspase-1 activation induced by LPS+nigericin", "setting": "[4]; 2 μM GW-A2 30 min before LPS 5.5 h, then 10 μM nigericin 30 min, Fig 4B", "result": "significantly inhibited"}, {"measurement": "IL-1β secretion and caspase-1 activation induced by LPS+ATP", "setting": "[4]; 2 μM GW-A2 30 min before LPS 5.5 h, then 5 mM ATP 30 min, Fig 4A", "result": "significantly inhibited"}, {"measurement": "Nigericin-induced IL-1β secretion and caspase-1 activation in LPS-primed macrophages", "setting": "[4]; LPS 5.5 h, then 2 μM GW-A2 30 min, then 10 μM nigericin, Fig 4D", "result": "no significant effect"}, {"measurement": "MSU-induced IL-1β secretion in LPS-primed macrophages", "setting": "[4]; LPS 5.5 h, then 2 μM GW-A2 30 min, then 100 μg/ml MSU, Fig 4F", "result": "not able to inhibit"}, {"measurement": "ATP-induced IL-1β secretion and caspase-1 activation in LPS-primed macrophages", "setting": "[4]; LPS 5.5 h, then 2 μM GW-A2 30 min, then 5 mM ATP, Fig 4C", "result": "inhibited"}, {"measurement": "TNF-α secretion in LPS-primed macrophages", "setting": "[4]; LPS 5.5 h, then 2 μM GW-A2 30 min, then 5 mM ATP, Fig 4E", "result": "did not decrease"}]}]}
